From patent US8192962B2, “Processes for detecting toxic substances” (Daikin Industries, Ltd., priority 2001, dated 2012)

Tested on: Detoxification protein genes
Assay: DNA chip mRNA expression in yeast, detoxification protein genes (Table 8)
Assay type: cell-based, Saccharomyces cerevisiae S288C
Summary of the method: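 S. cerevisiae S288C grown at 25° C in YPD were exposed in log phase for two hours to one toxic chemical at a growth-inhibiting, non-lethal concentration; untreated cells served as control. Poly(A) mRNA was reverse-transcribed with Cy3/Cy5-dUTP and hybridized to a whole-genome yeast DNA chip at 65° C for over 12 hours; values are fluorescence ratios versus untreated.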

Question: What does the source list for `[Cl][Pb][Cl]` [(4), PbCl2]?
Answer: The level of expressed mRNA in the presence of chemical substance/The level of expressed mRNA in the absence of chemical substance (yeast gene YBL064C): 1.7; The level of expressed mRNA in the presence of chemical substance/The level of expressed mRNA in the absence of chemical substance (yeast gene YBR008C): 0.7; The level of expressed mRNA in the presence of chemical substance/The level of expressed mRNA in the absence of chemical substance (yeast gene YBR145W): 0.9; The level of expressed mRNA in the presence of chemical substance/The level of expressed mRNA in the absence of chemical substance (yeast gene YBR244W): 0.9; The level of expressed mRNA in the presence of chemical substance/The level of expressed mRNA in the absence of chemical substance (yeast gene YBR293W): 1.8; The level of expressed mRNA in the presence of chemical substance/The level of expressed mRNA in the absence of chemical substance (yeast gene YCL035C): 1.7; The level of expressed mRNA in the presence of chemical substance/The level of expressed mRNA in the absence of chemical substance (yeast gene YCL069W): 0.8; The level of expressed mRNA in the presence of chemical substance/The level of expressed mRNA in the absence of chemical substance (yeast gene YCR083W): 1.8; The level of expressed mRNA in the presence of chemical substance/The level of expressed mRNA in the absence of chemical substance (yeast gene YDL100C): 0.8; The level of expressed mRNA in the presence of chemical substance/The level of expressed mRNA in the absence of chemical substance (yeast gene YDL168W): 0.9; The level of expressed mRNA in the presence of chemical substance/The level of expressed mRNA in the absence of chemical substance (yeast gene YDR256C): 1.3; The level of expressed mRNA in the presence of chemical substance/The level of expressed mRNA in the absence of chemical substance (yeast gene YDR453C): 3.0; The level of expressed mRNA in the presence of chemical substance/The level of expressed mRNA in the absence of chemical substance (yeast gene YDR513W): 2.6; The level of expressed mRNA in the presence of chemical substance/The level of expressed mRNA in the absence of chemical substance (yeast gene YDR538W): 1.2; The level of expressed mRNA in the presence of chemical substance/The level of expressed mRNA in the absence of chemical substance (yeast gene YEL027W): 1.1; The level of expressed mRNA in the presence of chemical substance/The level of expressed mRNA in the absence of chemical substance (yeast gene YEL065W): 0.4; The level of expressed mRNA in the presence of chemical substance/The level of expressed mRNA in the absence of chemical substance (yeast gene YER185W): 7.0; The level of expressed mRNA in the presence of chemical substance/The level of expressed mRNA in the absence of chemical substance (yeast gene YFL050C): 2.2; The level of expressed mRNA in the presence of chemical substance/The level of expressed mRNA in the absence of chemical substance (yeast gene YGL013C): 0.7; The level of expressed mRNA in the presence of chemical substance/The level of expressed mRNA in the absence of chemical substance (yeast gene YGL254W): 0.6; The level of expressed mRNA in the presence of chemical substance/The level of expressed mRNA in the absence of chemical substance (yeast gene YGR088W): 2.4; The level of expressed mRNA in the presence of chemical substance/The level of expressed mRNA in the absence of chemical substance (yeast gene YGR138C): 1.2; The level of expressed mRNA in the presence of chemical substance/The level of expressed mRNA in the absence of chemical substance (yeast gene YGR197C): 1.0; The level of expressed mRNA in the presence of chemical substance/The level of expressed mRNA in the absence of chemical substance (yeast gene YGR209C): 1.5; The level of expressed mRNA in the presence of chemical substance/The level of expressed mRNA in the absence of chemical substance (yeast gene YGR224W): 1.2; The level of expressed mRNA in the presence of chemical substance/The level of expressed mRNA in the absence of chemical substance (yeast gene YHL040C): 0.4; The level of expressed mRNA in the presence of chemical substance/The level of expressed mRNA in the absence of chemical substance (yeast gene YHL047C): 1.0; The level of expressed mRNA in the presence of chemical substance/The level of expressed mRNA in the absence of chemical substance (yeast gene YHR008C): 1.8; The level of expressed mRNA in the presence of chemical substance/The level of expressed mRNA in the absence of chemical substance (yeast gene YHR048W): 1.7; The level of expressed mRNA in the presence of chemical substance/The level of expressed mRNA in the absence of chemical substance (yeast gene YHR053C): 1.1; The level of expressed mRNA in the presence of chemical substance/The level of expressed mRNA in the absence of chemical substance (yeast gene YHR055C): 1.2; The level of expressed mRNA in the presence of chemical substance/The level of expressed mRNA in the absence of chemical substance (yeast gene YIR002C): 0.6; The level of expressed mRNA in the presence of chemical substance/The level of expressed mRNA in the absence of chemical substance (yeast gene YIR038C): 2.0; The level of expressed mRNA in the presence of chemical substance/The level of expressed mRNA in the absence of chemical substance (yeast gene YJL101C): 1.2; The level of expressed mRNA in the presence of chemical substance/The level of expressed mRNA in the absence of chemical substance (yeast gene YJR104C): 1.2; The level of expressed mRNA in the presence of chemical substance/The level of expressed mRNA in the absence of chemical substance (yeast gene YKL026C): 4.9; The level of expressed mRNA in the presence of chemical substance/The level of expressed mRNA in the absence of chemical substance (yeast gene YKL064W): 0.8; The level of expressed mRNA in the presence of chemical substance/The level of expressed mRNA in the absence of chemical substance (yeast gene YKR066C): 0.7; The level of expressed mRNA in the presence of chemical substance/The level of expressed mRNA in the absence of chemical substance (yeast gene YKR105C): 1.5; The level of expressed mRNA in the presence of chemical substance/The level of expressed mRNA in the absence of chemical substance (yeast gene YKR106W): 1.4; The level of expressed mRNA in the presence of chemical substance/The level of expressed mRNA in the absence of chemical substance (yeast gene YLL028W): 0.5; The level of expressed mRNA in the presence of chemical substance/The level of expressed mRNA in the absence of chemical substance (yeast gene YLL057C): 0.9; The level of expressed mRNA in the presence of chemical substance/The level of expressed mRNA in the absence of chemical substance (yeast gene YLL060C): 2.6; The level of expressed mRNA in the presence of chemical substance/The level of expressed mRNA in the absence of chemical substance (yeast gene YLR043C): 1.8; The level of expressed mRNA in the presence of chemical substance/The level of expressed mRNA in the absence of chemical substance (yeast gene YLR046C): 0.8; The level of expressed mRNA in the presence of chemical substance/The level of expressed mRNA in the absence of chemical substance (yeast gene YML028W): 1.3; The level of expressed mRNA in the presence of chemical substance/The level of expressed mRNA in the absence of chemical substance (yeast gene YML116W): 1.4; The level of expressed mRNA in the presence of chemical substance/The level of expressed mRNA in the absence of chemical substance (yeast gene YMR015C): 0.9; The level of expressed mRNA in the presence of chemical substance/The level of expressed mRNA in the absence of chemical substance (yeast gene YMR038C): 0.8; The level of expressed mRNA in the presence of chemical substance/The level of expressed mRNA in the absence of chemical substance (yeast gene YNL239W): 1.2; The level of expressed mRNA in the presence of chemical substance/The level of expressed mRNA in the absence of chemical substance (yeast gene YNL241C): 1.0; The level of expressed mRNA in the presence of chemical substance/The level of expressed mRNA in the absence of chemical substance (yeast gene YNL259C): 1.2; The level of expressed mRNA in the presence of chemical substance/The level of expressed mRNA in the absence of chemical substance (yeast gene YOL158C): 0.9; The level of expressed mRNA in the presence of chemical substance/The level of expressed mRNA in the absence of chemical substance (yeast gene YOR031W): 3.4; The level of expressed mRNA in the presence of chemical substance/The level of expressed mRNA in the absence of chemical substance (yeast gene YOR153W): 1.1; The level of expressed mRNA in the presence of chemical substance/The level of expressed mRNA in the absence of chemical substance (yeast gene YOR247W): 1.4; The level of expressed mRNA in the presence of chemical substance/The level of expressed mRNA in the absence of chemical substance (yeast gene YOR251C): 1.8; The level of expressed mRNA in the presence of chemical substance/The level of expressed mRNA in the absence of chemical substance (yeast gene YOR273C): 1.0; The level of expressed mRNA in the presence of chemical substance/The level of expressed mRNA in the absence of chemical substance (yeast gene YPL163C): 0.9; The level of expressed mRNA in the presence of chemical substance/The level of expressed mRNA in the absence of chemical substance (yeast gene YPR200C): 5.0
